From patent publication US5589457A, “Process for the synchronization of ovulation” (Ausa International, Inc., priority 1995, dated 1996)
No end group written: not given here.

Key:
[1] = test system: cow; conditions: cited from earlier work
[2] = test system: lactating dairy cows; test: Ovulation response to GnRH injection in lactating dairy cows; format: in vivo, bovine
Source text: The sequential hormone treatments function in the following manner. The first injection of GnRH (or the LH or hCG if used) will cause ovulation of any large functional follicles that are present on the ovaries. Experimental work has shown that a follicle will ovulate in over 80% of lactating dairy cows that are given this GnRH injection. This ensures that a Corpus Luteum is present on the ovary to inhibit animals from coming into heat during the following week. This injection causes growth of a new wave of follicles due to secretion of follicle stimulating hormone (FSH) from the pituitary gland. Thus, the first injection of GnRH assures the presence of a corpus luteum and synchronizes the growth of a new follicular wave. The follicle that will eventually ovulate will come from this new wave of follicles.
As with other protocols, such as disclosed in the aforementioned patent to Donaldson, the injection of PGF2a is designed to regress any corpora lutea that are present on the ovary. This allows the new dominant follicle to proceed toward ovulation. Usually about 11/2 to 2 days later, just before two animals would begin to show signs of heat, the cows are given a second injection of GnRH. At this time the new dominant follicle should be at a large ovulatory size and this injection will cause the large follicle to ovulate. However, as indicated previously, the second dose of GnRH can be given at the same time as the PGF2a injection and this can be done where it is desirable to enhance management efficiency; that is by combining the PGF2a and GnRH injection, one step in the treatment protocol is eliminated. The cows will ovulate at 1-2 days, usually 24-32 hours after this second injection of GnRH. Thus, instead of having animals show heat over a 7 day period of time, ovulation can be synchronized to an 8 hour period of time. This concise synchronization allows for effective timed insemination.

[3] = test system: cows; test: Artificial insemination concomitant with second GnRH dose (preliminary work); format: in vivo, bovine; conditions: insemination near or at the same time as second GnRH injection
Method: While the normal practice will be to inseminate the cows about 16-20 hours after the second GnRH injection, insemination can occur any time ranging from the time of the GnRH injection or a day before or up to about a day later. Ovulation need not occur before insemination since the sperm can survive in the reproductive track for up to one or even two days after insemination. Thus insemination can safely take place one day before the GnRH injection. Preliminary work has shown that in some cases there may be some advantages to carrying out the artificial insemination concomitantly with the administration of the second dose of GnRH or within eight hours either before or after the second dose of GnRH.

[4] = second GnRH injection after PGF2a

Row | Molecule | time to heat after PGF2a, large dominant follicle present ([1]; PGF2a given when a large dominant follicle is present) [days] | time for follicle to grow large enough to induce heat after PGF2a, new follicular wave just beginning ([1]; PGF2a given when a new follicular wave is just beginning) [days] | period of time to which ovulation is synchronized ([2]; after second GnRH injection) [h] | lactating dairy cows in which a follicle will ovulate after the first GnRH injection ([2]; first injection of GnRH, any stage of estrous cycle) | time of ovulation after second injection of GnRH [2, 4] [days] | usual time of ovulation after second injection of GnRH [2, 4] [h] | birth rate of female calves [3] | spontaneous abortion rate [3]
1 | CCCCC[C@H](O)/C=C/[C@@H]1[C@@H](C/C=C\CCCC(=O)O)[C@@H](O)C[C@H]1O [PGF2a, prostaglandin F2α] | 2 to 3 | 6 to 7 | – | – | – | – | – | –
2 | gonadotropin releasing hormone (QHWSYGLRPG; ends and bridges not checked; UniProt P01148 24-33, looked up) [GnRH] | – | – | 8 | over 80% | 1 to 2 | 24 to 32 | enhancement in the birth rate of female calves | somewhat lower spontaneous abortion rate
